Experimental data published in US8293495B2, “Blood-brain barrier model” (Wisconsin Alumni Research Foundation, priority 2006, dated 2012).
Counter-ions that a name gives are not always drawn.

Assays:
BMEC = BMEC treated with glucocorticoid; cited from earlier work
BMEC monolayer = experiment: Fluorescein flux through BMEC monolayer co-cultured with differentiating NPC (in vitro BBB model); assay type: in vitro ADME, rat
Text: (§1) Many methods can be used to determine BBB permeability as well as uptake and efflux rates using an in vitro model. As an example, the rates for trans-BBB transport can be used to directly determine a pseudo steady-state permeability value (Pe) which is an estimate of in vivo permeability for a particular pharmaceutical compound, protein, or drug carrier. With the assumption that the concentration in the upper fluid compartment is static, and with a correction for the resistance provided by the membrane itself, the permeability can be readily determined for each test compound. Briefly, the transcytosis rate (Q) can be divided by the concentration of material added to the apical chamber (Ca) and the area of the membrane (Am) to yield a total permeability (Pt) that includes resistances due to the monolayer and the membrane (Pt=Q/[AmCa], or using clearance volume terminology Pt is equal to the slope of the clearance volume versus time line divided by the membrane area). Subsequently, Pe can be calculated by correcting for the resistance supplied by the cell free membrane (Pm) (1/Pe=1/Pt−1/Pm) (Bickel, U. How to measure drug transport across the blood-brain barrier. NeuroRx 2005, 2, 15-26.).
(§2) The permeability was assessed by determining the flux of fluorescein through the BMEC monolayer. Fluorescein sodium salt in DMEM was added to the apical filter compartment to produce a uniform initial concentration of 1 μM. Subsequently, 200 μl were removed from the basolateral compartment after 0, 15, 30, 45, and 60 min. The fluorescence was measured with the FLx800 fluorescence reader (Bio-Tek Instruments) and the rates of fluorescein accumulation in the lower compartment used to determine the permeability as described previously (Perriere et al. 2005).

[1] = as above; assay type: in vitro ADME, rat; conditions: rat; through the in vitro model, BMEC with NPC co-culture, 1 μM apical; read-out: permeability (Pe) (converted)
Text: as §1, §2

rat BMEC = rat BMEC co-cultured with astrocytes; cited from earlier work
[2] = cited from earlier work

Row | reduction of monolayer permeability by NPC co-culture (BMEC monolayer; BMEC with differentiating NPC vs BMEC without NPC, 24 h co-culture) [%] | permeability (Pe) (BMEC monolayer; through the in vitro model, BMEC with NPC co-culture, 1 μM apical) [×10⁻⁶ cm/s] | Papp A→B at 60 min, 1 μM [1] [×10⁻⁶ cm/s] | Compound | TEER (BMEC) | frayed junctions (BMEC) [% frayed] | fluorescein permeability (rat BMEC) [×10⁻⁶ cm/s] | crossing of the BBB in vivo [2]
1 | – | – | – | C[C@]12C[C@H](O)[C@H]3[C@@H](CCC4=CC(=O)CC[C@@]43C)[C@@H]1CC[C@@H]2C(=O)CO [corticosterone] | 168 Ω×cm^2 | 21 | – | –
2 | 33 | 5.5 | 5.5 | O=C1OC2(c3ccc(O)cc3Oc3cc(O)ccc32)c2ccccc21 [fluorescein, Fluorescein sodium salt] | – | – | 4.5 | does not appreciably cross the BBB
3 | – | – | – | C[C@]12CCC(=O)C=C1CC[C@@H]1[C@@H]2[C@@H](O)C[C@@]2(C)[C@H]1CC[C@]2(O)C(=O)CO [hydrocortisone] | 218 Ω×cm^2 | 12 | – | –
